Source: patent publication US7939083B2, “Soluble, stabilized, proteolytically cleaved, trimeric HIV-1 gp140 proteins comprising modifications in the N-terminus of the gp41 ectodomain” (Progenics Pharmaceuticals Inc., priority 2006, dated 2011)

Assays:
[1] = tested on: JR-FL gp41 NT 1-5 Env-pseudotyped virus; format: cell-based, HIV-1 JR-FL; conditions: U87.CD4.CCR5 cells; in nM for T-20
Description: (§1) Pseudotyped virions bearing JR-FL envelope glycoproteins (WT and mutant) were produced by cotransfection of selected env clones with a luciferase-expressing reporter vector, pNL4-3Env(−)Luc(+), as described above. To measure infectivity, luciferase-expressing Env-pseudotyped viruses (50 μl) containing normalized amounts of p24 antigen were added to 3×10^3 U87.CD4.CCR5 cells/well. U87.CD4.CXCR4 cells were used as a negative control. After 4 days, th cells were lysed with 75 μl of 1× Glo lysis buffer (Promega, Calif.) for subsequent quantification of luciferase, which was expressed by the Env-pseudotyped virions that contain the gene for firefly luciferase inserted into the nef gene of HIV-1, using the Bright-Glo™ Luciferase Assay Substrate (Promega, Calif.) and a VICTOR3 1420 multilabel counter (Perkin Elmer Life Sciences, Mass.).
(§2) Neutralization of infectivity was performed as described previously (Trkola et al., 1998). The pseudovirions were incubated with an equal volume of various MAbs, CD4-IgG2, or T-20 for 1 hour at 37° C. before the residual infectivity was determined using U87.CD4.CCR5 cells as described above. The concentration of each inhibitor was expressed as the amount present after the inhibitor-virus mixture was added to the cells. The data were analyzed by non-linear regression (variable-slope sigmoidal dose response) to calculate the inhibitor concentrations that caused 50% reductions in luciferase expression (IC50), using the GraphPad Prism 4 software (maximal viral production in the absence of inhibitor was designated as 100%).

[2] = tested on: JR-FL WT Env-pseudotyped virus; format: cell-based, HIV-1 JR-FL
Description: as §1, §2

[3] = DEAE anion exchange chromatography of Tween 20-treated trimers; format: physicochemical; conditions: Tween 20 treated (0.05%), TN-75 buffer
Description: Purified KNH1144 SOSIP R6 gp140 trimers, treated either with or without 0.05% Tween® 20 (final), containing a2M contaminant in TN-75 buffer was applied over 1 ml DEAE HiTrap FF column (equilibrated in TN-75) at 0.25 ml/min at RT and flow-through (FT) fractions were collected. Following sample loading, the column was washed with TN-75 at 0.5 ml/min and wash fractions were collected. Finally, the column was eluted with TN-300 and equal amounts from each fraction were analyzed via BN-PAGE, followed by Coomassie G-250 staining.

[4] = Tween 20 aggregate conversion experiments (BN-PAGE); format: physicochemical; conditions: Tween 20 0.05%, 10 minutes, room temperature
Description: Tween® 20 Dose effect: 1 ug of purified KNH1144 SOSIP R6 trimer was incubated with varying concentrations of Tween® 20 (polyoxyethylene sorbitan monolaurate) ranging from 0 to 0.0001% (v/v) and incubated for 1 hour at room temperature. Following incubation, samples were analyzed by BN-PAGE as described above.
Kinetics of Tween® 20 effect: To ascertain the early kinetics of the Tween® 20 effect on aggregate, 1 ug of purified KNH1144 SOSIP R6 trimer was incubated with Tween® 20 at a final concentration of 0.05% (v/v) for 5 minutes and for 10 minutes. A no-detergent control was included separately for each timepoint.
Temperature dependance on Tween® 20 effect: To determine if temperature affected the ability of Tween® 20 to recover trimers from aggregates (i.e., collapse aggregate into trimer), 1 ug of purified KNH1144 SOSIP R6 trimer was incubated with Tween® 20 to a final concentration of 0.05% (v/v) at 0° C. […] Following the incubation, samples were analyzed by BN-PAGE and Coomassie staining.
Following the treatment, samples were analyzed by BN-PAGE and Coomassie staining.
Tween® 20 effect on -2-macroglogulin (a2M): 0.5 ug of purified -2-macroglobulin was either untreated or treated with Tween® 20 at a final concentration of 0.05% for 10 minutes at room temperature. Reactions were analyzed via BN-PAGE, followed by Coomassie staining.

| Substance | IC50 [1] [nM] | IC50 against WT Env-pseudotyped virus greater than against the mutant [2] [fold] | IC50 ([2]; U87.CD4.CCR5 cells, in nM for T-20) [nM] | binding to DEAE column [3] | effect of Tween 20 on BN-PAGE migration [4] |
| --- | --- | --- | --- | --- | --- |
| enfuvirtide | 11.5 | 2 | 24.2 | – | – |
| a2M: acidic 726 kDa tetrameric glycoprotein, contaminant/control protein | – | – | – | bound to the DEAE column | No change was observed in the migratory pattern |
